Measured values from US20110296540A1, “ASSAY FOR SCREENING ANTIDEPRESSANTS” (priority 2008, published 2011).
Read-outs that look alike come from different tables or passages of the source.

Experiments:
[1] = target: T1, 5-HT1A autoreceptors (Mus musculus, UniProt Q64264); test: Whole cell recordings in the dorsal raphe, response to 5-HT1A agonist; assay type: cell-based; parameters: endogenous in cells; host or cells: Serotonergic neurons of the raphe nuclei in mice homozygous for tetO-1A with one copy of Pet-tTS; conditions: 1A-High mice vs. 1A-Low mice; 100 nM
T1 sequence (Q64264 1-421): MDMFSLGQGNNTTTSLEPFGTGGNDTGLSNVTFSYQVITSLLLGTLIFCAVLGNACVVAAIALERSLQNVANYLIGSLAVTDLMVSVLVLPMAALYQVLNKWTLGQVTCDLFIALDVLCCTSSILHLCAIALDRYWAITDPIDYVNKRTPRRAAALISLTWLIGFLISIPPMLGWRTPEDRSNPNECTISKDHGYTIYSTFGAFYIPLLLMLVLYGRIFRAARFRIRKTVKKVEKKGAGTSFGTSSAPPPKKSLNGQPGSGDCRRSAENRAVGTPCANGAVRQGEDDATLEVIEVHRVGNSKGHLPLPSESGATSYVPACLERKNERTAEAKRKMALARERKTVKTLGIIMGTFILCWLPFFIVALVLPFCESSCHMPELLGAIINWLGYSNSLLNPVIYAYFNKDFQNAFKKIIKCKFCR
From the text: Downward deflections reflect spontaneous synaptic activity.
Much of this difference is accounted for by a smaller proportion of serotonergic neurons responding to the agonist challenge in the 1A-Low mice.

[2] = tested on: tet0-1A homozygous mice that do not carry the tTS transgene; test: Control for the effects of doxycycline on baseline anxiety and depression-related behavior; assay type: in vivo; conditions: transgene-negative littermates
From the text: FIGS. 27A-C Control for the effects of doxycycline on baseline anxiety and depression-related behavior.
(C) Likewise, no differences were detected in the forced swim test on either the first (i) or second (ii) day of testing (N=47).
This was accomplished using a novel bigenic system consisting of two parts: 1) insertion of the tet0 DNA regulatory element into the promoter region of the Htr1a gene, to create the tet0-1A allele and 2) raphe-specific expression of the tetracycline-dependent transcriptional suppressor (tTS) under the control of the previously characterized 540Z Pet-1 promoter fragment (P. M. Fisher et al., Nat Neurosci 9, 1362 (Nov., 2006)). […] Removal of doxycycline for four weeks beginning at postnatal day (PND) 50 creates an adult population of animals with lower expression of 5-HT1A autoreceptors (1A-Low) (FIG. 21b). Four weeks after doxycycline removal, suppression has reached maximal levels (data not shown).

[3] = target: T1, 5-HT1A autoreceptors
Description: (A) 8-OH DPAT-induced hypothermia in 1A-High and 1A-Low mice. Following establishment of baseline body temperature, animals received IP injections of 0.1 mg/kg 8-OHDAPT, 0.5 mg/kg 8-OH DPAT, or saline (N=5/dose/group). Values are expressed as core temperature change from the last recorded baseline temperature.

[4] = tested on: C57BL/6Ntac mice; test: Open Field paradigm, chronic corticosterone model; assay type: in vivo; conditions: 3-week antidepressant treatment in corticosterone-treated mice; imipramine 40, fluoxetine 18 mg/kg/day
From the text: The procedure described previously was used (Dulawa et al., 2004). Motor activity was quantified in four Plexiglas open field boxes 43 times 43 cm2 (MED Associates, Georgia, Vt.). Two sets of 16 pulse-modulated infrared photobeams were placed on opposite walls 2.5-cm apart to record x-y ambulatory movements. Activity chambers were computer interfaced for data sampling at 100-ms resolution. The computer defined grid lines that divided each Open Field into center and surround regions, with each of four lines being 11 cm from each wall. Dependent measures in the center were the total time and the number of entries over a 30-min period of test. The whole session was also divided in […] to analyze the time spent in the center every 5 min. The overall motor activity was quantified as the total distance traveled (cm) or distance traveled in the center divided by total distance traveled.
Mice were anesthetized with ketamine and xylazine (100 mg/ml ketamine; 20 mg/ml xylazine), placed in a stereotaxic frame and exposed to cranial irradiation using a Siemens Stabilopan X-ray system operated at 300 kVp and 20 mA. Animals were protected with a lead shield that covered the entire body, but left unshielded a 3.22×11-mm treatment field above the hippocampus (interaural 3.00 to 0.00) exposed to X-Ray. Dosimetry was done using a Capintec Model PR06G electrometer ionization chamber and Kodak Readypack Radiographic XV films. The corrected dose rate was approximately 1.8 Gy per min at a source to skin distance of 30 cm. The procedure lasted 2 min and 47 sec, delivering a total of 5 Gy. Three 5 Gy doses were delivered on days 1, 4 and 8.

[5] = tested on: C57BL/6Ntac mice; test: Forced Swim Test, chronic corticosterone model; assay type: in vivo; conditions: for immobility duration (FST): mean±SEM
[6] = tested on: HPA axis; test: Stress evoked increase of corticosterone levels; assay type: in vivo, mice; conditions: acute swim stress; baseline conditions and after chronic corticosterone treatment
Description: Adult male C57BL/6Ntac mice were exposed to a 6 minutes swim stress. […]. Blood was collected into ice-chilled tubes containing EDTA and centrifuged at 3000 rpm for 10 min (at 4° C.) for separation of plasma, and plasma samples were stored at −80° C. until assayed. […]; Diagnostic Systems Laboratories, Inc. Webster, Tex.; sensitivity limit: 20 ng/ml). ACTH was measured directly in plasma using an ImmuChem™ Double Antibody hACTH 1251 RIA kit (No. 07-106101; MP Biomedicals, LLC, Orangeburg, N.Y.) with a sensitivity limit ˜5.7 pg/ml. All samples were measured simultaneously to reduce inter-assay variability.

NCCc1c[nH]c2ccc(C(N)=O)cc12 [5-CT]
average current elicited by agonist challenge in serotonergic neurons [1]: significantly higher

C[C@H]1c2cccc(O)c2C(=O)C2=C(O)[C@]3(O)C(=O)C(C(N)=O)=C(O)[C@@H](N(C)C)[C@@H]3[C@@H](O)[C@@H]21 [doxycycline]
effect on behavioral measures (Open Field, Light/Dark choice test, forced swim test) [2]: no effect

CCCN(CCC)C1CCc2cccc(O)c2C1 (stereo not shown) [8-OH DPAT]
hypothermic response to 5-HT1A agonist challenge ([3]; 1A-High mice, 0.1 and 0.5 mg/kg IP): robust and dose-dependent hypothermic response | hypothermic response to 8-OH DPAT ([3]; 1A-High vehicle control mice, 0.5 mg/kg i.p.): robust hypothermic response | hypothermic response to 5-HT1A agonist challenge ([3]; 1A-Low mice, detected only at the highest dose): attenuated response

CN(C)CCCN1c2ccccc2CCc2ccccc21 [imipramine]
corticosterone-induced anxiety phenotype in the Open Field (time and entries in the center) [4]: reversed | immobility duration (FST) ([5]; corticosterone treated animals, alone or with antidepressant): 296.8 s | immobility duration (FST) ([5]; non-corticosterone treated animals): 298.5 s | duration of immobility (FST), effect ([5]; two-way ANOVA, corticosterone 7 weeks, antidepressants last 3 weeks): decreased | stress induced corticosterone levels [6]: had no effect
